Measured values taken from patent publication US20210298299A1 (priority 2018, published 2021).
Where two headings read alike, the source gives them in different places.

Tests used:
Assay type in all cases: in vivo
[1] = system: rice blast fungus Pyricularia oryzae; conditions: alone
[2] = system: wheat speckled leaf blotch fungus Septoria tritici; assay: Test for wheat speckled leaf blotch (Septoria tritici); conditions: alone
Method: Test for Wheat Speckled Leaf Blotch (Septoria tritici)
(§1) The agrochemical formulations diluted to predetermined concentrations were applied to wheat plants at a predetermined amount with a spray gun. After air-drying, the wheat plants were spray-inoculated with a spore suspension of the wheat speckled leaf blotch fungus Septoria tritici (1.0×10^7 spores/mL). After that, the wheat pots were kept in a greenhouse under light conditions at 15° C. and 100% RH to induce the development of the disease. At 17 days after the inoculation, the disease area percentage was indexed on a scale of 0 to 10 to evaluate the control efficacy. The control value is expressed in percentage (%) as shown below or in index form as in Example 1.
Disease Severity Index Scale
0: No manifestation of disease
1: Lesion area percentage is 1 to 10%.
2: Lesion area percentage is 11 to 20%.
3: Lesion area percentage is 21 to 30%.
4: Lesion area percentage is 31 to 40%.
5: Lesion area percentage is 41 to 50%.
6: Lesion area percentage is 51 to 60%.
7: Lesion area percentage is 61 to 70%.
8: Lesion area percentage is 71 to 80%.
9: Lesion area percentage is 81 to 90%.
10: Lesion area percentage is 91 to 100%.
Control value (%)=(disease severity index in non-treatment plot−disease severity index in treatment plot)×100/disease severity index in non-treatment plot [Math. 3]

[3] = system: cucumber anthracnose fungus Colletotrichum orbiculare; conditions: alone, rating scale of Test Example 1
[4] = system: leaf rust fungus Puccinia recondita; assay: Test for control efficacy against wheat leaf rust; conditions: alone, scale of 0 to 10
Method: Test for Control Efficacy Against Wheat Leaf Rust
as §1, with “the” for “the wheat speckled”, “rust” for “blotch”, “Puccinia recondita” for “Septoria tritici”, “7” for “17”, “efficacy.” for “efficacy. The control value is expressed in percentage (%) as shown below or in index form as in Example 1.”

[5] = system: cucumber gray mold fungus Botrytis cinerea; assay: Test for control efficacy against cucumber gray mold; conditions: alone, from diameter of lesion area
Method: Test for Control Efficacy Against Cucumber Gray Mold
The agrochemical formulations diluted to predetermined concentrations were applied to the foliage of cucumber plants (variety: Suuyou) at the one-leaf stage grown in individual pots. The application rate was 50 mL per pot. On the day following the application, 6-mm-diameter paper disks were impregnated with a spore suspension of the cucumber gray mold fungus Botrytis cinerea cultured on PSA medium, and inoculated onto cucumber true leaves. The pots were kept at a temperature of 20° C. and a humidity of 100%. At 6 days after the inoculation, the control value was determined by the equation 4 shown below.
Control value (%)=(diameter of lesion area in non-treatment plot−diameter of lesion area in treatment plot)×100/diameter of lesion area in non-treatment plot [Math. 4]

[6] = system: tomato late blight fungus Phytophthora infestans; conditions: alone, rating scale of Test Example 2
[7] = system: Laodelphax striatellus; assay: Test for control efficacy against Laodelphax striatellus; conditions: alone, 30 days after the agrochemical treatment
Text: Test for Control Efficacy Test Against Laodelphax striatellus
Adults of the test insect were released onto rice plants (variety: Kinmaze, 95 days after transplantation) grown in individual 2-L pots (8 females and 5 males per pot). At 11 days after the insect release (when hatched larvae were observed), mixed formulations of compound [1-7] and other agrochemicals and each individual agrochemical (prescribed effective doses) were separately applied. After air-drying and at 10 days after the agrochemical treatment, adults of the test insect were additionally released onto the rice plants (8 females and 5 males per pot). At 30 days after the agrochemical treatment, the number of survivors was measured, and the control value was calculated by equation 6. In addition, the expected value E for the mixed use was calculated by Colby's equation as described in Test Example 1. When the actual control efficacy of combined treatment with two different agrochemicals is greater than the expected value E, the combination can be regarded as having synergistic effect.
Control value (%)=(1−number of survivors/number of survivors in control plot)×100 [Math. 6]
Assuming that the control value for “no grade” is 49%, when the control values of the two different agrochemicals are both 49%, the expected value E calculated by Colby's equation is as follows: E=(49+49)−(49×49/100)=73.99. The control value of 73.99 corresponds to grade C. Therefore, when both the agrochemicals are graded as no grade, the expected value is C.

[8] = system: Plutella xylostella; assay: Test for control efficacy against Plutella xylostella; conditions: alone
Text: Test for Control Efficacy Against Plutella xylostella
Brassica oleracea var. capitata (variety: YR Seitoku) seedlings were planted in a glass greenhouse, and after reaching the 12- to 15-leaf stage, the seedlings were inoculated with 3rd-instar larvae of Plutella xylostella. The number of surviving larvae per three plants before agrochemical treatment was counted. A mixed formulation of compound [1-2] and flubendiamide (prepared according to Formulation Example 5) and each individual agrochemical were separately diluted to predetermined concentrations in water and applied to the Brassica oleracea var. capitata plants. The number of surviving larvae was counted at 2 and 6 days after the application, and the control efficacy was calculated by the equation 5 shown below. In addition, the expected value E was calculated by Colby's equation as described in Test Example 1.
Control efficacy (%)=100−{(Ta×Cb)/(Tb×Ca)}×100 [Math. 5]
Ta=number of survivors after agrochemical treatment in treatment plot
Tb=number of survivors before agrochemical treatment in treatment plot […]
As a result of the test for control efficacy against Plutella xylostella, the control efficacy of the composition composed of compound […] was greater than the expected value E calculated by Colby's equation from the control efficacy of the individual compounds. […]

SMILES: Fc1ccc([C@]2(Cn3cncn3)O[C@H]2c2ccccc2Cl)cc1 (racemic) [Epoxiconazole 8EC, epoxiconazole]
- Control value ([1]; 0.5 ppm, ten-point scale): 0.0
- Control value ([1]; 2 ppm, ten-point scale): 3.0
- Control value ([1]; 8 ppm, ten-point scale): 10
- Control value (%) ([2]; 0.4 ppm, Compound [1-5] series): 0%
- Control value (%) ([2]; 1.1 ppm, Compound [1-5] series): 0%
- Control value (%) ([2]; 2 ppm, Compound [1-7] series): 0.0%
- Control value (%) ([2]; 3.3 ppm, Compound [1-5] series): 16%
- Control value (%) ([2]; 8 ppm, Compound [1-7] series): 6.0%
- Control value (%) ([2]; 10 ppm, Compound [1-5] series): 86%
- Control value ([3]; 0.5 ppm): 0.0
- Control value ([3]; 2 ppm): 0.0
- Control value ([4]; 0.5 ppm): 7.0
- Control value ([4]; 2 ppm): 10.0
- Control value ([5]; 67 ppm): 55%
- Control value ([5]; 200 ppm): 100%

SMILES: CO/C=C(/C(=O)OC)c1ccccc1Oc1cc(Oc2ccccc2C#N)ncn1 [Azoxystrobin 20SC, azoxystrobin]
- Control value ([1]; 0.3 ppm, ten-point scale): 1.0
- Control value ([1]; 3 ppm, ten-point scale): 10
- Control value ([3]; 0.3 ppm): 2.0
- Control value ([3]; 3 ppm): 8.0
- Control value ([4]; 0.3 ppm): 0.0
- Control value ([4]; 3 ppm): 9.0
- Control value ([6]; 0.3 ppm): 0.0
- Control value ([6]; 3 ppm): 2.0
- Grade ([7]; 100 ppm): No grade (less than 50%)
- Grade ([7]; 500 ppm): No grade (less than 50%)

SMILES: O=C(Nc1ccccc1-c1ccc(Cl)cc1)c1cccnc1Cl [Boscalid 50WG, boscalid]
- Control value ([5]; 2 ppm): 8%
- Control value ([5]; 7 ppm): 18%
- Control value ([5]; 22 ppm): 20%

SMILES: CCC(Nc1ncnc(C)c1Cl)c1ccc(OC(F)F)cc1 (stereo not drawn) [Diflumetorim 10EC, diflumetorim]
- Control value ([1]; 10 ppm, ten-point scale): 8.0
- Control value ([3]; 10 ppm): 2.0
- Control value ([4]; 10 ppm): 1.0

SMILES: CC1(C(=O)Nc2ccc(O)c(Cl)c2Cl)CCCCC1 [Fenhexamid 50SC, fenhexamid]
- Control value ([5]; 7 ppm): 0%
- Control value ([5]; 22 ppm): 0%
- Control value ([5]; 200 ppm): 53%

SMILES: N#Cc1c[nH]cc1-c1cccc2c1OC(F)(F)O2 [Fludioxonil 20SC, fludioxonil]
- Control value ([1]; 3 ppm, ten-point scale): 6.0
- Control value ([1]; 10 ppm, ten-point scale): 9.0
- Control value ([3]; 3 ppm): 7.0
- Control value ([3]; 10 ppm): 9.5
- Control value ([4]; 3 ppm): 0.0
- Control value ([4]; 10 ppm): 0.0
- Control value ([4]; 200 ppm): 4.0
- Control value ([5]; 7 ppm): 0%
- Control value ([5]; 22 ppm): 59%

SMILES: O=C(NCCc1ncc(C(F)(F)F)cc1Cl)c1ccccc1C(F)(F)F [Fluopyram 50SC, fluopyram]
- Control value ([1]; regardless of the concentration): 0
- Control value (%) ([2]; 10 ppm, Compound [1-7] series): 0.0%
- Control value ([3]; 3 ppm): 0.0
- Control value ([3]; 10 ppm): 2.0

SMILES: Cn1cc(C(=O)Nc2ccccc2-c2cc(F)c(F)c(F)c2)c(C(F)F)n1 [Fluxapyroxad 6EC, fluxapyroxad]
- Control value ([1]; 0.3 ppm, ten-point scale): 0.0
- Control value ([1]; 1 ppm, ten-point scale): 0.0
- Control value (%) ([2]; 0.07 ppm, Compound [1-5] series): 16%
- Control value (%) ([2]; 0.22 ppm, Compound [1-5] series): 31%
- Control value (%) ([2]; 0.67 ppm, Compound [1-5] series): 65%
- Control value (%) ([2]; 1 ppm, Compound [1-7] series): 0.0%
- Control value (%) ([2]; 2.0 ppm, Compound [1-5] series): 98%
- Control value (%) ([2]; 6.0 ppm, Compound [1-5] series): 99%
- Control value ([3]; 1 ppm): 0.0
- Control value ([6]; 1 ppm): 0.0

SMILES: OC(Cc1ccccc1Cl)(Cn1nc[nH]c1=S)C1(Cl)CC1 (stereo not drawn) [Prothioconazole 25EC, prothioconazole]
- Control value ([1]; 6.25 ppm, ten-point scale): 5.0
- Control value ([1]; 25 ppm, ten-point scale): 9.0
- Control value ([3]; 6.25 ppm): 8.0
- Control value ([3]; 25 ppm): 10
- Control value ([4]; 6.25 ppm): 0.0
- Control value ([4]; 25 ppm): 5.0
- Control value ([6]; 25 ppm): 0.0

SMILES: COC(=O)N(OC)c1ccccc1COc1ccn(-c2ccc(Cl)cc2)n1 [Pyraclostrobin 25EC, pyraclostrobin]
- Control value ([3]; 3 ppm): 7.0
- Control value ([4]; 1 ppm): 5.0
- Control value ([4]; 3 ppm): 9.0
- Control value ([6]; 3 ppm): 4.0
- Grade ([8]; 10 ppm): No grade (less than 50%)
- Grade ([8]; 50 ppm): A (100%)
- Grade ([7]; 10 ppm): No grade (less than 50%)
- Grade ([7]; 50 ppm): A (100%)

SMILES: O=C(Nc1ccccc1-c1ccc(F)c(F)c1)c1nccnc1C(F)(F)F [Pyraziflumid 20SC, pyraziflumid]
- Control value (%) ([2]; 0.2 ppm, Compound [1-5] series): 1%
- Control value (%) ([2]; 0.7 ppm, Compound [1-5] series): 53%
- Control value (%) ([2]; 2 ppm, Compound [1-7] series): 6.0%
- Control value (%) ([2]; 2.2 ppm, Compound [1-5] series): 92%
- Control value (%) ([2]; 6.7 ppm, Compound [1-5] series): 99%
- Control value (%) ([2]; 20 ppm, Compound [1-5] series): 100%
- Control value ([3]; 0.5 ppm): 0.0
- Control value ([3]; 2 ppm): 0.0
- Control value ([4]; 2 ppm): 2.0
- Control value ([6]; 2 ppm): 0.0

SMILES: CC(C)(C)C(O)(CCc1ccc(Cl)cc1)Cn1cncn1 (stereo not drawn) [Tebuconazole 25EW, tebuconazole]
- Control value ([1]; 0.3 ppm, ten-point scale): 0.0
- Control value ([1]; 1 ppm, ten-point scale): 0.0
- Control value (%) ([2]; 1 ppm, Compound [1-7] series): 0.0%
- Control value ([3]; 0.3 ppm): 0.0
- Control value ([6]; 1 ppm): 0.0
